The values below come from BigSolDB 2.1.

Turning to `COc1cc(C=O)ccc1O`, the solubility (mole fraction) reads like this: (in ethanol, 283.15 K) 0.0673; (in ethanol, 288.15 K) 0.0698; (in ethanol, 293.15 K) 0.0734; (in ethanol, 298.15 K) 0.0785; (in ethanol, 303.15 K) 0.082; (in ethanol, 308.15 K) 0.0854. Also, the solubility (mole fraction) (in ethanol, 313.15 K) came out at 0.0902; the solubility (mole fraction) (in ethanol, 318.15 K) came to 0.0938; the solubility (mole fraction) (in ethanol, 323.15 K) came out at 0.0985; the solubility (mole fraction) (in ethyl acetate, 283.15 K) was found to be 0.109; the solubility (mole fraction) (in ethyl acetate, 288.15 K) was determined as 0.115; the solubility (mole fraction) (in ethyl acetate, 293.15 K) came to 0.118. Moreover, the solubility (mole fraction) (in ethyl acetate, 298.15 K) was 0.125; the solubility (mole fraction) (in ethyl acetate, 303.15 K) was found to be 0.128; the solubility (mole fraction) (in ethyl acetate, 308.15 K) stood at 0.133; the solubility (mole fraction) (in ethyl acetate, 313.15 K) was 0.137; the solubility (mole fraction) (in ethyl acetate, 318.15 K) was determined as 0.142; the solubility (mole fraction) (in ethyl acetate, 323.15 K) came to 0.15.

Regarding `O=C(O)/C=C/c1ccc(O)cc1`, the solubility (mole fraction) runs as follows: (in ethanol, 283.15 K) 0.0358; (in ethanol, 288.15 K) 0.0381; (in ethanol, 293.15 K) 0.0414; (in ethanol, 298.15 K) 0.0461; (in ethanol, 303.15 K) 0.0514; (in ethanol, 308.15 K) 0.0559. The solubility (mole fraction) reads like this: (in ethanol, 313.15 K) 0.0621; (in ethanol, 318.15 K) 0.0675; (in ethanol, 323.15 K) 0.0735; (in ethyl acetate, 283.15 K) 0.00928; (in ethyl acetate, 288.15 K) 0.0101; (in ethyl acetate, 293.15 K) 0.0114. Moreover, the solubility (mole fraction) is, setting by setting: (in ethyl acetate, 298.15 K) 0.0129; (in ethyl acetate, 303.15 K) 0.0145; (in ethyl acetate, 308.15 K) 0.0164; (in ethyl acetate, 313.15 K) 0.0185; (in ethyl acetate, 318.15 K) 0.0208; (in ethyl acetate, 323.15 K) 0.0232.
